Measurements: publication PMC12080252, “Daphnia magna as an Alternative Model for (Simultaneous) Bioaccumulation and Chronic Toxicity Assessment—Controlled Exposure Study Indicates High Hazard of Heterocyclic PAHs” (Environmental Science & Technology, 2025)
Several values for one entry are separate records, joined by “and”; a condition that tells them apart may be missing. Identical values can stand only once. Like-named read-outs stand apart in the source and are kept apart here.

Columns and labels:
[1] = Table 1; EPA Comptox where available, otherwise EPISuite MPBPVP v1.43 prediction; cited from earlier work
[2] = Partitioning between methanolic loading solution and aqueous medium (passive dosing); type: physicochemical; details: methanolic loading solution vs M4 medium at equilibrium via PDMS disk
Experimental: Polydimethylsiloxane (PDMS) passive dosing disks, each weighing 2 g with a surface area of 19.6 cm^2, were prepared using SYLGARD 184 silicone elastomer kit and cleaned before use. Details of the procedure are given in Section S3 (SI file). PDMS disks were loaded in methanolic solution or suspension of the test compounds (10 mL solution/disk) with constant shaking for 72 h, wiped with a lint-free tissue, and washed with water for 30 min four times to remove methanol.
The time required to reach equilibrium between the PDMS disk and the aqueous medium was determined by conducting 72-h kinetic experiments. Chemicals were dosed into M4 medium in 250 mL Schott bottles (in triplicates) at a ratio of 1 disk/100 mL M4 medium using disks loaded with methanolic solution of a single test substance. For the controls, the disks were loaded with pure methanol. While shaking the bottles at room temperature, five samples were taken at different time points over 72 h and the equilibration time was determined.
Passive dosing enabled successful quantification of exposure concentrations after centrifugation of algal biomass (CW), closely matching freely dissolved concentrations (Cfree) calculated from partition coefficients between methanol and the medium (KMeOH:medium; see Figure S12 and section S6 for details).
Table S5 Partition coefficients between the methanolic loading solutions (CMeOH, t=0, nominal concentration
in methanol at t=0) and the measured equilibrium concentrations of the aqueous medium (Cmedium, eq).
Compound CMeOH, t=0 Measured KMeOH:medium log log KMeOH:medium Calculated
[mg L-1] Cmedium, eq KMeOH:medium (mean ± SD) Cmedium, eq
* The “calculated CMedium, eq” were reported using the average KMeoH:medium and CMeOH, t=0. […]

[3] = tested on: Daphnia magna; experiment: Bioaccumulation test (growth, uptake, depuration; adapted from OECD 305) with passive dosing; type: in vivo; details: for log BAF*L5%: 5-day uptake, steady-state not reached, normalized to 5% lipid assuming 1.5% lipid in daphnids, eq 8; for effects on growth (wet weight) in bioaccumulation test: BCRB 21.6, BNF 4.5, BNT 4.3, DNF 0.1 μg L^–1, vs controls, p < 0.05; for log BCFL5% (BAF*L5%) / log k2 (growth-dilution corrected, k2g): Table S7, this study; for k2g (growth dilution corrected depuration rate constant): eq 4; for t95 (time to reach 95% steady-state): estimated from k2, eq 6; for k2 (depuration rate constant): slope of ln CD vs time
Experimental: (§1) Bioaccumulation tests with D. magna were adapted from OECD guideline 305 (for fish).[27] Each compound was tested using 110 animals: 10 for controls and 100 for chemical exposure. The animals, aged 10 days to limit growth dilution and provide sufficient tissue for analysis, were exposed to a single subtoxic concentration of each chemical. The test included three phases: (i) growth, (ii) uptake, and (iii) depuration. A combined chronic toxicity and bioaccumulation test was also conducted in a minimized version (section 2.6).
(§2) Ten days before exposure, 110 juvenile daphnids (<24 h old) were collected from the stock culture and grown in M4 medium. Due to the large number of animals required for this test, the volume of media and amount of food provided to the Daphnia were reduced for experimental feasibility. This was achieved by maintaining a denser population (20 mL medium/daphnid), as well as less food (D. subspicatus equivalent to 0.1 mg C/daphnid/day) compared to the stock culture yet still within the limits allowed by OECD 211. Other dietary supplements (fish food and spirulina) and physical conditions (temperature, light/dark cycle) were the same as the stock culture.
(§3) Before exposure started, 2 L of M4 medium containing D. subspicatus at a density sufficient for 100 daphnids for 5 days (25 mg C L^–1) was dosed with the test substance by shaking with 24 PDMS disks for 72 h. For controls (10 animals), 200 mL of M4 medium containing D. subspicatus ([…]) was equilibrated with 2 disks loaded with pure methanol. Immediately before the start of exposure phase, 10-day old daphnids were transferred to fresh medium for 1 h to clean their guts. Thereafter, 10 control daphnids were placed in 200 mL of pre-equilibrated clean medium with 2 clean PDMS disks, while 100 animals (treatment group) were divided into two beakers, each with 50 animals, 1 L of predosed exposure medium, and 12 loaded disks to begin the 5-day uptake phase.
(§4) Neonates were discarded daily, and animals were sampled at 24 h intervals over 120 h (5 time points, 2 replicates of 5 animals each). Sampled daphnids were transferred to clean medium for 15 min to remove chemicals present on animal surface, dried with lint-free tissue and weighed to determine wet weight. Finally, 5 animals of known mass were combined in each vial and stored at −20 °C until extraction. As passive dosing maintains constant concentrations,[1] medium samples for analysis (with and without biomass) were only taken at the end of the uptake phase.
(§5) 50 animals were first transferred to fresh medium for 15 min to remove exposure solution from their surface, and then placed in a new clean medium for the depuration phase. Animals were sampled at 4 time points (2 replicates of 5 animals each as in the uptake phase) over 69 to 96 h. After sampling, the remaining animals were transferred to fresh medium, and the old medium was collected for analysis. Control animals and their medium were analyzed at the end of both the uptake and depuration phases (5 animals each).
(§6) For quantification of body burdens, 5 daphnids were thawed, homogenized in 5 mL Milli-Q water (IKA T-25 digital Ultra-TURRAX) and extracted twice with 2 mL of hexane. The extracts were combined, dried with Na2SO4, concentrated under a nitrogen stream, and spiked with internal standard.
(§7) The depuration rate constant (k2) was derived by plotting the natural logarithm of CD against time ([h]), with the slope giving k2 (Figure S3).[27] The growth rate constant (kg) was determined from the slope of the regression line in the plot of ln (D. magna wet weight) versus time, and the growth-corrected depuration rate constant (k2g) was calculated using eq 4. [drawing 4] 4
(§8) From k2, the optimal uptake and depuration durations to reach 50% and 95% steady-state were estimated using eqs 5 and 6. [drawing 5] 5 [drawing 6] 6
(§9) The bioaccumulation factor (BAF*) was calculated, even though steady-state was not reached. […]

[4] = as above; type: in vivo, Daphnia magna; details: whole body (homogenate, wet weight); for concentration at 120 h: Daphnia magna, concentration in animal body at end of uptake phase (t = 120 h), read-out: Body burden
Experimental: as §1, §2, §3, §4, §5, §6, §7, §8, §9

[5] = Table S7, this study, read-out: half-life (converted)
[6] = t50 (time to reach 50% steady-state / depuration half-life), estimated from k2, eq 5

SMILES	VP (vapor pressure) [1]	log KMeOH:medium (mean ± SD) [2]	log BAF*L5% [3]	effects on growth (wet weight) in bioaccumulation test [3]	log BCFL5% (BAF*L5%) [3]	log k2 (growth-dilution corrected, k2g) [3] [h-1]	k2g (growth dilution corrected depuration rate constant) [3] [h⁻¹]	t95 (time to reach 95% steady-state) [3] [h]	k2 (depuration rate constant) [3] [h⁻¹]	concentration at 120 h [4] [ng/g]	half-life [4, 5] [h]	half-life [4, 6] [h]
c1ccc2c(c1)ccc1[nH]c3ccccc3c12 [BCRB, 7H-benzo[c]carbazole]	4.43x10^-8 mm Hg	4.12±0.06	3.60±0.09 L kg^-1 lipid	statistically significant effects on growth	3.6	-0.96	0.109	27	0.111	25600	6.23	6
c1ccc2c(c1)ccc1oc3ccccc3c12 [BNF, benzo[b]naphtho[1,2-d]furan]	3.36x10^-6 mm Hg	5.26±0.06	3.28±0.31 L kg^-1 lipid	statistically significant effects on growth	3.28	-1.66	0.022	120	0.025	2580	27.7	28
c1ccc2c(c1)ccc1sc3ccccc3c12 [BNT, benzo[b]naphtho[1,2-d]thiophene]	8.97x10^-7 mm Hg	5.46±0.12	4.36 L kg^-1 lipid and 4.36±0.43 L kg^-1 lipid	No inhibitory growth effects	4.36	-1.39	0.040	71	0.042	29400	16.5	17
c1ccc2c(c1)ccc1oc3ccc4ccccc4c3c12 [DNF, dinaphtho[2,1-b:1′,2′-d]furan]	2.15x10^-8 mm Hg	5.98±0.14	3.77 L kg^-1 lipid and 3.77±0.08 L kg^-1 lipid	No inhibitory growth effects	3.77	-1.98	0.0105	232	0.0129	176	53.7	54
